In patent US4339454A, “Alkoxymethyl and benzyloxymethyl phenobarbital therapeutic compositions” (priority 1978, dated 1982):

Assays:
maximal electroshock = test: Anticonvulsant effectiveness against maximal electroshock, mice; format: in vivo, mice (Charles River strain); conditions: for Time of peak activity: mice, oral, maximal electroshock
Experimental: (§1) All tests, with the exceptions noted, were conducted on adult albino male mice (Charles River strain); the dosage consisted of the active agent suspended in 10% aqueous acacia and was administered orally unless otherwise indicated.
Anticonvulsant effectiveness of each agent against maximal electroshock was determined at the time of peak effect. The time of peak anticonvulsant activity was determined by administering dosages of various sizes to a group of animals and administering a maximal electroshock to the animals at intervals thereafter by supplying 60 ma. current through a corneal electrode for 0.2 second. […] The time of peak effect thus determined was used for all subsequent tests of anticonvulsant activity on the same active agent.

[1] = literature / prior knowledge; cited from earlier work
Metrazol = test: Anticonvulsant effectiveness against convulsive dose of Metrazol, mice; format: in vivo, mice (Charles River strain); conditions: oral
Experimental: as §1
Anticonvulsant effectiveness was determined against a convulsive dose of Metrazol (106.25 mg/kg) injected subcutaneously; the criterior for effectiveness was failure to show clonic convulsive seizures. Anticonvulsant activity was determined against a lethal dose of strychnine sulfate (1.5 mg/kg) injected subcutaneously; the criterion was failure to die, even though seizures appeared.

central nervous system = test: Hypnotic activity: loss of the righting reflex (onset of sleep); format: in vivo, mice (Charles River strain); conditions: any dosage less than a lethal dose for the compounds of the invention
Experimental: as §1

[2] = prior knowledge; cited from earlier work

With CCC1(c2ccccc2)C(=O)N(COC)C(=O)N(COC)C1=O [Example 1, 1,3-dimethoxymethyl-5-ethyl-5-phenyl barbituric acid] as the compound, how does the “Duration of anticonvulsant effect against maximal electroshock (in words)” value (maximal electroshock; 0.1 millimole/kg) read?
Its value is “protection continued at about the same level for more than eight hours”.

And the “Onset of protection against maximal electroshock (in words)” value (maximal electroshock; 0.1 millimole/kg)?
Its value is “only after two hours”.

What about the “Time of peak activity” value (maximal electroshock) of the same compound?
The value was 2 h.

What about the “Change in ED50 to protect against maximal electroshock on repeated daily dosage” value (maximal electroshock; repeated daily dosage of same animals for four days) of the same compound?
The value was “no significant change”.

What about the “Hypnotic activity, known or reported” value [1] of the same compound?
The value was “without effect”.

For COCN1C(=O)NC(c2ccccc2)(c2ccccc2)C1=O [Example 2, 3-methoxymethyl-5,5-diphenylhydantoin], which “Onset of anticonvulsant activity (maximal electroshock) after ingestion” value (maximal electroshock; after ingestion) is on record?
The value was “less than 0.5 hour”.

For CCCCCCCCCCCCOCN1C(=O)N(COCCCCCCCCCCCC)C(=O)C(CC)(c2ccccc2)C1=O [Example 8, 1,3-dilauryloxymethyl-5-ethyl-5-phenyl barbituric acid], which “Time of peak activity” value (maximal electroshock) is on record?
Its value is 2 h.

For CCC1(CC)C(=O)N(COC)C(=O)N(COC)C1=O [Example 9, 1,3-dimethoxymethyl-5,5-diethylbarbituric acid], which “Time of peak activity” value (Metrazol) is on record?
Its value is 1 h.

Which “Time of peak activity (in words)” value (Metrazol) does the source give for CCCCCCCCCCCCOCN1C(=O)N(COCCCCCCCCCCCC)C(=O)C(CC)(CC)C1=O [Example 10, 1,3-di-n-dodecyloxymethyl-5,5-diethyl barbituric acid] here?
The value was “about one hour”.

Which results are given for CCC1(c2ccccc2)C(=O)NC(=O)NC1=O [Phenobarbital, phenobarbital]?
Hypnotic activity (loss of the righting reflex) (central nervous system): did exhibit hypnotic activity; Hypnotic activity, known or reported [1]: exhibits hypnotic activity

For O=C1NC(=O)C(c2ccccc2)(c2ccccc2)N1 [diphenylhydantoin], which “Hypnotic activity, known or reported” value [1] is on record?
The value was “not hypnotic”.

What about the Undesirable side effects [2] of the same compound?
Its Undesirable side effects is “hypertrophic gingivitis, megaloblastic anemia, toxic psychoses, and hirsutism”.

Which results are given for CCC1(c2ccccc2)C(=O)NC(=O)NC1=O [phenobarbital sodium, reference compound]?
Duration of anticonvulsant effect against maximal electroshock (in words) (maximal electroshock; 0.1 millimole/kg): protection began to decrease after four hours and was nearly gone by eight hours; Onset of protection against maximal electroshock (maximal electroshock; 0.1 millimole/kg): less than 0.5 hour
